Laboratory results published in patent US10537516B2, “Composition for treating skin pigmentation and related methods” (Access Business Group International LLC, priority 2017, dated 2020).
Values after ≈ are worked out from the molar mass of the structure shown. Values joined by “and” are separate entries in the source; they are usually repeats but may differ in a detail not shown here. Identical values can stand only once. “Also recorded” adds a separate entry of the source. Like-named read-outs stand apart in the source and are kept apart here. Marks after values point to notes of the source that are not given here.

Experiments:
B16-F10 cells [1] = assay: Melanin synthesis inhibition in B16-F10 cells; assay type: cell-based, Mus musculus (mouse); conditions: 100 μg/mL, 72 hours, average of two wells
Experimental: (§1) The effects of the present skin treatment compounds and plant extracts were evaluated in vitro using a B16-F10 (ATCC# CRL-6475) cell model. The B16-F10 cell model is a Mus musculus (mouse) melanoma skin cell line. The skin treatment compounds and plant extracts were evaluated for cell toxicity, inhibition of melanin synthesis, inhibition of tyrosinase enzyme activity, and elimination of existing melanin in B16-F10 cells. Tables 1 and 2 below list the 5 skin treatment compounds and 17 skin treatment plant extracts evaluated, respectively.
The ability of the skin treatment compounds and plant extracts to inhibit melanin synthesis was evaluated. Melanin is the pigment in skin cells that is responsible for coloring of the skin and various pigmentation disorders, such as age spots and freckles. Inhibition of melanin synthesis may result in lightening of the skin color and/or inhibit further darkening of the skin color. Arbutin is a conventional plant-derived compound used in skin lightening treatments and was therefore selected for use as a positive control.
(§2) B16-F10 cells were trypsinized using Trypsin-EDTA (GIBCO Cat. #25200-072) and cell density was determined. The cell slurry was diluted to a concentration of 18,000 cells per milliliter (mL) in a growth media containing RPMI 1640 (GIBCO Cat. #22400-089) supplemented with fetal bovine serum (GIBCO Cat. #10099-141). The diluted cell slurry was dispensed into the wells of a 24 well cell culture plate (BD Falcon Cat. #353047) at 1 mL per well (18,000 cells/well). The cells were incubated overnight at 37° C. and 5% CO2 in humid conditions.
The plated cells were treated by preparing a 200× dilution of each skin lightening compound, plant extract, and arbutin (i.e., the positive control; Sigma Cat. #A4256) in 100% dimethyl sulfoxide (DMSO; Sigma Cat. #D2650). 5 μL of the 200× dilution was added to each well. The treated cells were incubated for 72 hours at 37° C. and 5% CO2 in humid conditions. The skin lightening compounds and plant extracts were evaluated at concentrations of 0 (untreated), 10, 50, and 100 μg/mL. Arbutin was evaluated at concentrations of 0 (untreated), 25, 125, and 250 μg/mL.
When the treatment period was completed, the medium from each well was discarded and the cells were washed once with 1 mL per well of DPBS (Dulbecco's Phosphate-Buffered Saline; Biosera Cat. #LM-S2041). […] The UV absorbance of each well was determined using a plate reader with the primary wave length set to 400 nm.
Melanin synthesis inhibition was determined using the UV absorbance at 400 nm according to the following equation: % Inh=(Max signal−Compound signal)/(Max signal−Min signal)×100

B16-F10 cells [2] = assay: CellTiter-Glo (CTG) Luminescent Cell Viability Assay (cell toxicity); assay type: cell-based, Mus musculus (mouse); conditions: for IC50: Mus musculus, read-out: IC50 cellular toxicity, skin treatment compound/plant extract
Experimental: The toxicity of the skin treatment compounds and plant extracts was evaluated using the CellTiter-Glo® (CTG) Luminescent Cell Viability Assay from Promega Corporation. The assay determines the number of viable cells in culture based on quantitation of the ATP present, which is indicative of the presence of metabolically active cells.
The CellTiter-Glo® reagent was added to the cells and the luminescence was obtained according to the assay instructions provided by Promega Corporation. The IC50 was calculated for each skin treatment compound or plant extract and the corresponding positive control.

B16-F10 cells [3] = assay: Melanin elimination in forskolin/8-MOP pre-treated B16-F10 cells; assay type: cell-based, Mus musculus (mouse); conditions: 72 hours, B16-F10 cells pre-treated with forskolin and 8-MOP; for % Melanin Elimination, skin treatment compound/plant extract: 100 μg/mL, average of two wells
Experimental: as §1
The ability of the skin treatment compounds and plant extracts to eliminate existing melanin within skin cells was evaluated. Melanin is the pigment in skin cells that is responsible for coloring of the skin and various pigmentation disorders, such as age spots and freckles. Elimination of existing melanin inside a cell may result in lightening of the skin color and/or inhibit further darkening of the skin color. […]
as §2, with “Trypsin-EDTA” for “Trypsin-EDTA (GIBCO Cat. #25200-072)”, “1640” for “1640 (GIBCO Cat. #22400-089)”, “serum.” for “serum (GIBCO Cat. #10099-141).”, “plate” for “plate (BD Falcon Cat. #353047)”
Following the overnight incubation, the medium was discarded and replaced with 1 mL per well of growth media including 50 μM forskolin (Sigma Cat. #F6886) and 10 μM 8-Methoxypsoralen (8-MOP; Alfa Aesar Cat. #A17108). The cells were then incubated for 72 hours at 37° C. and 5% CO2 in humid conditions.
The medium in each well was discarded and replaced with 1 mL/well. 5 μL of the 200× dilution was added to each well. The treated cells were incubated for 72 hours at 37° C. and 5% CO2 in humid conditions. The skin lightening compounds and plant extracts were evaluated at concentrations of 0 (untreated), 10, 50, and 100 μg/mL. […]
When the treatment period was completed, the medium from each well was discarded and the cells were washed once with 1 mL per well of DPBS. The DPBS wash was removed and 150 μL of 1N sodium hydroxide was added to each well for 30 minutes while the cells were incubated at 80° C. to lyse the cells. Next, 145 μL from each well was transferred to a UV plate and the remaining 5 μL was tested to determine the protein concentration. The UV absorbance of each well was determined using a plate reader with the primary wave length set to 400 nm.
Melanin elimination was determined using the UV absorbance at 400 nm according to the following equation: % Inh=(Max signal−Compound signal)/(Max signal−Min signal)×100
Where “% Inh” is the percent of melanin eliminated from the cell, the “Max signal” is the UV absorption for cells treated with forskolin and 8-MOP, and the “Min signal” is the UV absorption of untreated cells.

tyrosinase enzyme = target: T1, tyrosinase enzyme (Mus musculus, UniProt P11344); assay: Tyrosinase enzyme activity inhibition in treated B16-F10 cells (L-DOPA); assay type: cell-based; conditions: 72 hours
T1 construct: endogenous in cells; host or cells: B16-F10 (ATCC# CRL-6475) mouse melanoma cells
T1 sequence (P11344 19-533): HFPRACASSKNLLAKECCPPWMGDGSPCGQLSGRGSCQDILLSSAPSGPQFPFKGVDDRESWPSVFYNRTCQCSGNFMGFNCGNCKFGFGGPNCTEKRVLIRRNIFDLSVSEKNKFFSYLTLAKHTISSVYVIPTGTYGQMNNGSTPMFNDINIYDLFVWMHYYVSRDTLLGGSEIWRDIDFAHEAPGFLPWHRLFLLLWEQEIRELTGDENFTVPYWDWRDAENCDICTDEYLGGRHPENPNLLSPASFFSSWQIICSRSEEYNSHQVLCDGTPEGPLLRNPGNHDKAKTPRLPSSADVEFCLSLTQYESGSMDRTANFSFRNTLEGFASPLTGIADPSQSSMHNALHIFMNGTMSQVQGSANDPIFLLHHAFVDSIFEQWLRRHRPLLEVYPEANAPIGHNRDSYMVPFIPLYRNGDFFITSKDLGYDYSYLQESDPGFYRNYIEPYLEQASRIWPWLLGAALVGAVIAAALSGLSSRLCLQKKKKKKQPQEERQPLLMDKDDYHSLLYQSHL
Experimental: The ability of the skin treatment compounds and plant extracts to inhibit tyrosinase enzyme activity was evaluated. Tyrosinase enzyme is involved in melanin production and thus inhibition of tyrosinase may suppress melanin production, which may result in lightening of skin color and/or inhibition of further darkening of skin color. Arbutin is a conventional plant-derived compound used in skin lightening treatments and was therefore selected for use as a positive control. B16-F10 cells were trypsinized using Trypsin-EDTA and cell density was determined. The cell slurry was diluted to a concentration of 18,000 cells per milliliter (mL) in a growth media containing RPMI 1640 supplemented with fetal bovine serum. […] Arbutin was evaluated at concentrations of 0 (untreated), 25, 125, and 250 μg/mL. […] The UV absorbance of each well was determined using a plate reader with the primary wave length set to 475 nm. Tyrosinase inhibition was determined using the UV absorbance at 475 nm according to the following equation: % Inh=(Max signal−Compound signal)/(Max signal−Min signal)×100 Where “% Inh” is the percent inhibition of tyrosinase, the “Max signal” is the UV absorption for cells treated with L-DOPA, and the “Min signal” is the UV absorption of cells not treated with L-DOPA.

[4] = B16-F10 cells, 72 hours, 0.01 to 100 ug/mL, CellTiter-Glo

Row | SMILES | % Melanin Synthesis Inhibition, skin treatment compound/plant extract (B16-F10 cells [1]) | IC50 cellular toxicity, skin treatment compound/plant extract (B16-F10 cells [2]; [4]) [µg/mL] | % Melanin Elimination, skin treatment compound/plant extract (B16-F10 cells [3]) [%] | other results
1 | CC1=C2C[C@H]3[C@@H](CC(=O)[C@H]4C[C@@H](O)CC[C@@]43C)[C@@H]2CC[C@]12O[C@@H]1C[C@H](C)CN[C@H]1[C@H]2C [Peimisine] | 62.1% | >50 | 23.8 | –
2 | COc1cc2c3c(c1OC)-c1ccccc1C[C@H]3N(C)CC2 [Nuciferine] | – | – | 34.1 | inhibition at 100 µg/mL (B16-F10 cells [1]; Mus musculus, read-out: % Melanin Synthesis Inhibition, skin treatment compound/plant extract): 104%; IC50 (B16-F10 cells [2]; B16-F10, 72 h): 62.2 µg/mL (≈ 211 µM)
3 | Oc1ccc(O)cc1 [Hydroquinone, reference compound] | – | – | – | IC50 cellular toxicity, Hydroquinone IC50 (corresponding positive control) (B16-F10 cells [2]; B16-F10 cells, 72 hours, hydroquinone positive control run with the substance of the same line): (7.0) μg/mL; also recorded: (4.2) μg/mL; also recorded: (4.1) μg/mL; % Melanin Elimination (hydroquinone control) (B16-F10 cells [3]; hydroquinone 100 μg/mL): 70.6%
4 | OC[C@H]1O[C@@H](Oc2ccc(O)cc2)[C@H](O)[C@@H](O)[C@@H]1O [Arbutin] | – | – | – | % Tyrosinase Inhibition (Arbutin) (tyrosinase enzyme; arbutin 125 μg/mL, control of the same line): 38.3% and 52.8%
5 | O=C(O)CCCC[C@@H]1CCSS1 (racemic) [Lipoic acid] | 30.3** % | >100 | 65.7 | % Tyrosinase Inhibition, skin treatment compound/plant extract (tyrosinase enzyme; 100 μg/mL, average of two wells): 98.6%
6 | CN[C@@H](C)[C@H]1[C@H](O)C[C@@]2(C)[C@@H]3CC[C@H]4C(C)(C)[C@@H](NC)CC[C@@]45C[C@@]35CC[C@]12C [Cyclovirobuxine D] | 53.2% | >100 | 92.4 | –
7 | C/C=C1/[C@H](O[C@@H]2O[C@H](CO)[C@@H](O)[C@H](O)[C@H]2O)OC=C(C(=O)OC)[C@H]1CC(=O)OCCc1ccc(O)c(O)c1 [Oleuropein] | – | – | 37.0 | IC50 (B16-F10 cells [2]; [4]): 90.3 µg/mL (≈ 167 µM)
